What was measured:
[1] = Biphasic dissolution test (BiPHa+); format: physicochemical; conditions: organic phase 1-decanol
Text: To simulate the gastrointestinal properties to obtain in vivo predictive results, the pH-profile, bile salt concentration and gastrointestinal passage time were adjusted in the aqueous phase to mimic human gut conditions. […] An organic phase of 1-decanol above the aqueous phase imitated the fraction absorbed from the gut. As a test model, the profile of a person without prior food intake was chosen. Therefore, FaSSIF-V2 medium, which represents the bile salts concentration of a fasted human was used. […] To generate an in-situ biorelevant aqueous medium for the fasted state, biorelevant surfactants, namely sodium-taurocholate (3 mM) and lecithin (0.2 mM), were added.
Prior to the start of the experiments, both phases, 1-decanol and the acidic aqueous phase, were saturated with each other.
After 30 min FaSSIF-V2 concentrate (sodium-taurocholate and lecithin) was added simultaneously to the addition of citrate-phosphate buffer (tri-potassium phosphate and potassium citrate) resulting in a first pH-shift from pH 1 to pH 5.5, simulating the duodenum. […] The adjusted buffers were titrated by 0.1 M NaOH and 0.1 M HCl (pH 5.5-6.8). The whole dissolution took 4.5 hours.

[2] = Pharmacokinetic analysis in vivo in BALB/c mice; set-up: species or system BALB/c female mice; conditions: PO, Example 13, compared to IV set to 100%
Experimental: Pharmacokinetic analysis was performed in vivo in fed BALB/c female mice (n=4) (Study DZIF11). The solid formulation was suspended right before administration in PBS (phosphate buffered saline; pH=7.4) and was administered via gavage (36 mg/kg CorA, 10 mL/kg). Blood samples from the vena facialis were collected after 5, 10, 15, 30, 180, and 480 min. The samples were centrifuges for 10 min at 4° C. and 15000 g. The generated plasma was mixed in a ration of 1:3 with ice-cold acetonitrile (Bernd Kraft GmbH, Duisburg). The mixture was vortexed for 10 sec and centrifuged for 25 min at 4° C. and 11600 g. […] For the gradient method starting from 70% A/30% B to 20% A/80% B stepwise within 30 min, the mobile phases A (acetonitrile/water (Bernd Kraft GmbH, Duisburg) 5/95 with 5 mM ammonium acetate (Merck KGaA, Darmstadt) and 40 μL acetic acid (Sigma-Aldrich Chemie GmbH, Steinheim) per Liter) and B (acetonitrile/water 95/5 with 5 mM ammonium acetate and 40 μL acetic acid per Liter) enabled to quantitate corallopyronin A precisely at 300 nm at a flow rate of 0.3 mL/min and a column temperature of 30° C. The samples were quantitated via external reference standard. The content of the corallopyronin A reference material was analyzed by ^1H-NMR.
Plasma concentration-time profiles were generated and pharmacokinetic parameters calculated. […]

[3] = Stability analysis (storage, CorA content by HPLC-DAD); format: physicochemical
Experimental: The stability of the spray dried amorphous formulation of corallopyronin A embedded in polyvinylpyrrolidone was analyzed after storing samples in drying cabinets at 25° C./60% relative humidity (RH) and under accelerated conditions at 40° C./75% RH for 7, 14, 28 days and 3 months. The samples were stored in closed twist-off glass vials under nitrogen and in the presence of silica desiccant. The content was analyzed by High-Performance Liquid Chromatography with Diode-Array Detection (HPLC-DAD). The samples were, therefore, dissolved in acetonitrile (Bernd Kraft GmbH, Duisburg). The HPLC measurements were performed on a Waters Alliance e2695 separation module connected to a waters 2998 PDA detector. A waters XBridge® Shield RP18, 3.5 μm, 2.1×100 mm, 130 A column was used. For the gradient method starting from 70% A/30% B to 20% A/80% B stepwise within 30 min, the mobile phases A (acetonitrile/water (Bernd Kraft GmbH, Duisburg) 5/95 with 5 mM ammonium acetate (Merck KGaA, Darmstadt) and 40 μL acetic acid (Sigma-Aldrich Chemie GmbH, Steinheim) per Liter) and B (acetonitrile/water 95/5 with 5 mM ammonium acetate and 40 μL acetic acid per liter) enabled to quantitate corallopyronin A precisely at 300 nm at a flow rate of 0.3 mL/min and a column temperature of 30° C. The samples were quantitated via external reference standard. The content of the corallopyronin A reference material was analyzed by ^1H-NMR. The following table 2 summarizes the results of the stability analysis.

[4] = Solubility of corallopyronin A in ethanol; format: physicochemical

methyl N-[(E)-5-[6-hydroxy-5-[(2E,4E,9Z,13E)-8-hydroxy-2,5,9-trimethylpentadeca-2,4,9,13-tetraenoyl]-4-oxopyran-2-yl]hex-1-enyl]carbamate [CorA]
predicted absorption ([1]; FaSSIF-V2 fasted human, pH 1 to 5.5 to 6.8, 4.5 hours, about 10 mg CorA): 7.7% | Maximum Partitioned Drug in the Organic Phase (%) ([1]; fasted human gut conditions, 4.5 h): 8% | Absolute Bioavailability [2]: 11% | CorA Content ([3]; 3 months, 25° C., 60% RH, listed as Corallopyronin A): 39% | CorA Content ([3]; 3 months, 25° C., 60% RH, listed as corallopyronin A): below 40% | CorA Content ([3]; 3 months, 40° C., 75% RH, listed as Corallopyronin A): 6% | CorA Content ([3]; 3 months, 40° C., 75% RH, listed as corallopyronin A): below 10% | CorA Content ([3]; 7 days, 25° C., 60% RH, listed as Corallopyronin A): 85% | CorA Content ([3]; 7 days, 25° C., 60% RH, listed as corallopyronin A): below 90% | CorA Content ([3]; 7 days, 40° C., 75% RH, listed as Corallopyronin A): 47% | CorA Content ([3]; 7 days, 40° C., 75% RH, listed as corallopyronin A): below 50% | CorA Content ([3]; 14 days, 25° C., 60% RH): 76% | CorA Content ([3]; 14 days, 40° C., 75% RH): 31% | CorA Content ([3]; 28 days, 25° C., 60% RH): 63% | CorA Content ([3]; 28 days, 40° C., 75% RH): 17% | CorA Content ([3]; storage duration 0): 99% | amount that can be dissolved in ethanol [4]: 100 mg/mL

Source: US20230181522A1, “SOLID AND LIQUISOLID FORMULATIONS OF CORALLOPYRONIN A” (RHEINISCHE FRIEDRICH-WILHELMS-UNIVERSITÄT BONN, priority 2020, published 2023)
